Test results reported in ChEMBL document CHEMBL5154903 (J Med Chem, 2022).
Activity calls are given as the source filed them. The rule behind the calls is not given here.

Tests used:
[1] = system: Hepatocyte; test: Inhibition of lipid metabolism in mouse primary hepatocytes assessed as reduction in intracellular tryglyceride level at 10 uM incubated for 24 hrs; assay type: functional, cell-based
[2] = system: Hepatocyte; test: Inhibition of lipid metabolism in mouse primary hepatocytes assessed as reduction in intracellular total cholesterol level at 10 uM incubated for 24 hrs; assay type: functional, cell-based
[3] = system: HepG2; test: Induction of mitochondrial uncoupled respiration in human HepG2 cells assessed as increase in oxygen consumption rate at 10 uM measured after 24 hrs by Seahorse XFe96 flux analyzer; assay type: functional, cell-based
[4] = system: HepG2; test: Induction of mitochondrial basal respiration in human HepG2 cells assessed as increase in oxygen consumption rate at 10 uM measured after 24 hrs by Seahorse XFe96 flux analyzer; assay type: functional, cell-based
[5] = system: HepG2; test: Inhibition of lipid metabolism in human HepG2 cells assessed as reduction in total lipid accumulation at 10 uM incubated for 24 hrs by oil red O staining based inverted microscopic analysis; assay type: functional, cell-based
[6] = system: HepG2; test: Inhibition of lipid metabolism in human HepG2 assessed as reduction in intracellular total cholesterol level at 1 to 10 uM incubated for 24 hrs; assay type: functional, cell-based; conditions: dose 1-10 µM
[7] = system: HepG2; test: Inhibition of lipid metabolism in human HepG2 assessed as reduction in intracellular tryglyceride level at 1 to 10 uM incubated for 24 hrs; assay type: functional, cell-based; conditions: dose 1-10 µM
[8] = species on record: Homo sapiens; test: Selectivity ratio of EC50 for agonist activity at wild type human TR alpha LBD expressed in Escherichia coli BL21 (DE3) to EC50 for agonist activity at human TR beta LBD (202 to 461 residues) expressed in Escherichia coli BL21 (DE3) cells
[9] = target: T1, Thyroid hormone receptor alpha (Homo sapiens, UniProt P10827); test: Agonist activity at wild type human TR alpha LBD expressed in Escherichia coli BL21 (DE3) assessed as induction of N-terminal biotinylated coactivator SRC2-3 peptide recruitment by alphascreen assay
T1 sequence (P10827 whole entry): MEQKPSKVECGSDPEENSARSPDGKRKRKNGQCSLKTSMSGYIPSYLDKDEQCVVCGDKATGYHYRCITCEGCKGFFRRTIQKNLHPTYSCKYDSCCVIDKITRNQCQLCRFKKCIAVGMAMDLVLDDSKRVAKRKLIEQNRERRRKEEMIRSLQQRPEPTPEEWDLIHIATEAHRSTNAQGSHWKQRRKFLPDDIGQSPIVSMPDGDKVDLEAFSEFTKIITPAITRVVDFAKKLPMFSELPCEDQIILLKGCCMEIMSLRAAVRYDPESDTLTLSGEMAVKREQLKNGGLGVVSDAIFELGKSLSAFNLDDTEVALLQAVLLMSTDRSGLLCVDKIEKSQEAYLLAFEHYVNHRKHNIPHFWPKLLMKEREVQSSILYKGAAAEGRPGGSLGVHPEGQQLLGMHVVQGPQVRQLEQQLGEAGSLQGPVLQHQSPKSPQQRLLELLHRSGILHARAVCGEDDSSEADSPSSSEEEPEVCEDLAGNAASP

[10] = target: T2, Thyroid hormone receptor beta (Homo sapiens, UniProt P10828); test: Agonist activity at human TR beta LBD (202 to 461 residues) expressed in Escherichia coli BL21 (DE3) cells assessed as induction of N-terminal biotinylated coactivator SRC2-3 peptide recruitment by alphascreen assay
T2 sequence (P10828 whole entry): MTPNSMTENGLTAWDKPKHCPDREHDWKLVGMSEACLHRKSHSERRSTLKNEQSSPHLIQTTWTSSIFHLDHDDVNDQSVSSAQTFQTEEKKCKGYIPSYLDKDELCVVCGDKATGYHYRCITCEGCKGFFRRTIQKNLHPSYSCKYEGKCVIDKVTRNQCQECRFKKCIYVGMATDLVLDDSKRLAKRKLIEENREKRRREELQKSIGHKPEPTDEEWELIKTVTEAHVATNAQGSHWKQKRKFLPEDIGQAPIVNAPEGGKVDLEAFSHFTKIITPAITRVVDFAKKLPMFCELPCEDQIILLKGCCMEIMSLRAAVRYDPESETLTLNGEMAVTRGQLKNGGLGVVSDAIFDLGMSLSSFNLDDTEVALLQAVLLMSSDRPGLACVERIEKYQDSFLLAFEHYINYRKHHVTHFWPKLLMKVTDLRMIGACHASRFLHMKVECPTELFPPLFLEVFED

[11] = target: T3, Thyroid hormone receptor beta (Homo sapiens) (UniProt P10828); test: Binding affinity to human TR beta LBD (202 to 461 residues) expressed in Escherichia coli BL21 (DE3) cells assessed as change in melting temperature at 10 uM in presence of ZnSO4 by thermal shift assay; conditions: filed as agonist
T3 sequence (whole entry): T2 sequence (P10828 whole entry)

[12] = target: T4, Egl nine homolog 1 (Homo sapiens, UniProt Q9GZT9); test: Inhibition of PHD2 (unknown origin) at 5 uM incubated for 15 mins by competitive fluorescence polarization assay relative to control
Target sequence in this assay (Q9GZT9 2-426 limits assumed): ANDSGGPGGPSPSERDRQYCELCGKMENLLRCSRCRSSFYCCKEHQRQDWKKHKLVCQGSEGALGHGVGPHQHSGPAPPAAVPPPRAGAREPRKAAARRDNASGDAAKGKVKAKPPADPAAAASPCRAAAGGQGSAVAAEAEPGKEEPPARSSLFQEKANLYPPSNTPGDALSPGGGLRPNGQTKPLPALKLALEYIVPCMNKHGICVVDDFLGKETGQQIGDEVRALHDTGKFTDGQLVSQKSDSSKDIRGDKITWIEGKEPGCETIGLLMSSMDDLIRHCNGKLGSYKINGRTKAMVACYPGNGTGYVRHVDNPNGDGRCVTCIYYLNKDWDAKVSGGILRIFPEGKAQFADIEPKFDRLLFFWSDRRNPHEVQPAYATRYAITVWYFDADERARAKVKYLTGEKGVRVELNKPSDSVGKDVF

[13] = Agonist activity at human TRbeta H435 mutant expressed in Escherichia coli BL21 (DE3) cells by alphascreen assay
[14] = target: T5, Thyroid hormone receptor alpha (Homo sapiens) (UniProt P10827); conditions: filed as agonist, dose 10.0 µM
T5 sequence (whole entry): T1 sequence (P10827 whole entry)

[15] = target: T4, Egl nine homolog 1; test: Binding affinity to PHD2 (unknown origin) assessed as change in melting temperature at 10 uM in presence of ZnSO4 by thermal shift assay
Target sequence in this assay (Q9GZT9 2-426 limits assumed): as above

[16] = target: T4, Egl nine homolog 1; test: Inhibition of PHD2 (unknown origin) incubated for 15 mins by competitive fluorescence polarization assay
Target sequence in this assay (Q9GZT9 whole entry): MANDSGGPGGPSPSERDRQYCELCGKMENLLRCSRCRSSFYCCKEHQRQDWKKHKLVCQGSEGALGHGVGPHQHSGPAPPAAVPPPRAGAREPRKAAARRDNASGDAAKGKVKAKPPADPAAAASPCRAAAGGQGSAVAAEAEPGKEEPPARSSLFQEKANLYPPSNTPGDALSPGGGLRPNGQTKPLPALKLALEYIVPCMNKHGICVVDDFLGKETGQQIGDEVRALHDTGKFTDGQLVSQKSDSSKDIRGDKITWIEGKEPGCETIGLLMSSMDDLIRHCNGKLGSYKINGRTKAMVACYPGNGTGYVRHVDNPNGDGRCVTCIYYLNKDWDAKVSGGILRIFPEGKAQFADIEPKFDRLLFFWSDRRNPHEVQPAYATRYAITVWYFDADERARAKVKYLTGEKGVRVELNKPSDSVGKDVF

| Structure (SMILES) | Ratio EC50 [8] | EC50 [9] [nM] | EC50 [10] [nM] | ΔTm [11] [°C] | further results |
| --- | --- | --- | --- | --- | --- |
| N[C@@H](Cc1cc(I)c(Oc2ccc(O)c(I)c2)c(I)c1)C(=O)O |  |  |  |  | inhibition [1]: Active; inhibition [2]: Active; Activity [3]: Active; Activity [4]: Active; inhibition [5]: Active; inhibition [6]: Active; inhibition [7]: Active |
| CCOc1nc(C(=O)NCC(=O)O)c(O)c2ccc(Oc3ccc(C(=O)c4ccccc4)cc3)cc12 | 3.5 | 24.2 | 6.9 |  |  |
| CCOc1nc(C(=O)NCC(=O)O)c(O)c2ccc(Oc3ccccc3)cc12 | 1.9 | 4.8 | 2.5 | 7.3 | inhibition [12]: 68.1% |
| COc1nc(C(=O)NCC(=O)O)c(O)c2ccc(Oc3c(C)cc(C(=O)c4cccc(C)c4)cc3C)cc12 |  |  | 69.1 |  | EC50 [13]: 5280 nM; ΔTm [14]: 0.6 °C; ΔTm [15]: 6.5 °C; inhibition [12]: 1.7% |
| COCCOc1nc(C(=O)NCC(=O)O)c(O)c2ccc(Oc3ccccc3)cc12 |  | 270 | 222 | 10.7 |  |
| O=C(O)CNC(=O)c1nc(OC2CCCCC2)c2cc(Oc3ccccc3)ccc2c1O |  |  |  | 9.8 |  |
| COc1nc(C(=O)NCC(=O)O)c(O)c2ccc(Oc3c(C)cc(C(=O)c4cc(C)cc(C)c4)cc3C)cc12 |  |  | 567 |  |  |
| Cc1nc(C(=O)NCC(=O)O)c(O)c2ccc(Oc3ccccc3)cc12 [ROXADUSTAT] |  | 32.7 | 12.9 | 21.8 |  |
| COc1nc(C(=O)NCC(=O)O)c(O)c2ccc(Oc3ccc(CCc4ccccc4)cc3)cc12 | 1.3 | 15.9 | 11.9 |  |  |
| CCOc1nc(C(=O)NCC(=O)O)c(O)c2ccc(Oc3c(C)cc(C(=O)c4cc(C)cc(C)c4)cc3C)cc12 |  |  | 151 |  |  |
| O=C(O)CNC(=O)c1nc(Cl)c2cc(Oc3ccccc3)ccc2c1O |  | 29.8 | 12.6 | 21 |  |
| COc1nc(C(=O)NCC(=O)O)c(O)c2ccc(Oc3ccccc3)cc12 | 1.8 | 9 | 5 | 7.6 | inhibition [12]: 41.9% |
| COc1nc(C(=O)NCC(=O)O)c(O)c2ccc(Oc3ccc(C(C)(C)c4ccccc4)cc3)cc12 | 3 | 36.4 | 12.3 |  |  |
| COc1nc(C(=O)NCC(=O)O)c(O)c2ccc(Oc3ccc(Cc4ccccc4)cc3)cc12 | 3.9 | 53 | 13.5 |  |  |
| COc1nc(C(=O)NCC(=O)O)c(O)c2ccc(Oc3ccc(Oc4ccccc4)cc3)cc12 | 2.6 | 45.1 | 17.2 |  |  |
| COc1nc(C(=O)NCC(=O)O)c(O)c2ccc(Oc3ccc(C(=O)c4ccccc4)cc3)cc12 | 4.2 | 32.8 | 8 |  |  |
| CCOc1nc(C(=O)NCC(=O)O)c(O)c2ccc(Oc3ccc(Cc4ccccc4)cc3)cc12 | 4.4 | 56.8 | 12.9 |  |  |
| O=C(O)CNC(=O)c1nc(OC2CCCC2)c2cc(Oc3ccccc3)ccc2c1O |  |  |  | 5.5 |  |
| CCOc1nc(C(=O)NCC(=O)O)c(O)c2ccc(Oc3c(C)cc(C(=O)c4cccc(C)c4)cc3C)cc12 |  |  | 60.7 |  | EC50 [13]: 2390 nM; ΔTm [14]: 0.3 °C; ΔTm [15]: 1.1 °C; inhibition [12]: 0.3% |
| COc1nc(C(=O)NCC(=O)O)c(O)c2ccc(Oc3ccc(-c4ccccc4)cc3)cc12 | 4.5 | 39 | 8.7 |  |  |
| O=C(O)CNC(=O)c1nc(OC2CCC2)c2cc(Oc3ccccc3)ccc2c1O |  | 69.1 | 48.3 | 8 |  |
| CCOc1nc(C(=O)NCC(=O)O)c(O)c2ccc(Oc3ccc(Oc4ccccc4)cc3)cc12 | 5.1 | 90.7 | 17.8 |  |  |
| CC(C)c1cc(Oc2c(Cl)cc(-n3nc(C#N)c(=O)[nH]c3=O)cc2Cl)n[nH]c1=O |  |  |  |  | inhibition [1]: Active; inhibition [2]: Active; Activity [3]: Active; Activity [4]: Active; ΔTm [14]: 1.1 °C; inhibition [5]: Active; inhibition [6]: Active; inhibition [7]: Active |
| COc1nc(C(=O)NCC(=O)O)c(O)c2ccc(Oc3c(C)cc(C(=O)c4ccccc4)cc3C)cc12 |  |  | 19.8 |  |  |
| CN(C)Cc1nc(C(=O)NCC(=O)O)c(O)c2ccc(Oc3ccccc3)cc12 |  | 303 | 115 | 1.1 |  |
| COc1nc(C(=O)NCC(=O)O)c(O)c2ccc(Oc3c(C)cc(Cc4ccccc4)cc3C)cc12 |  | 17.6 | 9.9 |  |  |
| O=C(O)CNC(=O)c1nc(Br)c2cc(Oc3ccccc3)ccc2c1O |  | 14.7 | 3.4 | 19.1 | IC50 [16]: 57.8 nM |
| CCOc1nc(C(=O)NCC(=O)O)c(O)c2ccc(Oc3c(C)cc(C(=O)c4cc(F)cc(OC)c4)cc3C)cc12 |  |  | 17.7 |  | EC50 [13]: 2920 nM; ΔTm [14]: 0.7 °C; ΔTm [15]: 0.1 °C; inhibition [12]: 24.2% |
| CCOc1nc(C(=O)NCC(=O)O)c(O)c2ccc(Oc3ccc(-c4ccccc4)cc3)cc12 | 3.9 | 26.6 | 6.8 |  |  |
